Values quoted from earlier work, collected in patent US20240261419A1, “[…] PSILOCIN CONJUGATES FOR TREATMENT OF MENTAL ILLNESSES” (LONDON PHARMACEUTICALS AND RESEARCH CORPORATION, priority 2021, published 2024).
Read-outs that look alike come from different tables or passages of the source.

Details: background comparison of pharmacokinetic profiles

SMILES | time to reach maximum plasma level (CBD) | time to reach maximum plasma level (psilocybin)
C=C(C)[C@@H]1CCC(C)=C[C@H]1c1c(O)cc(CCCCC)cc1O [CBD, cannabidiol] | 4 to 6 h | 
CN(C)CCc1c[nH]c2cccc(OP(=O)(O)O)c12 [psilocy bin, psilocybin] |  | 1.5 h
